{
  "source": "paper PMC5984089",
  "about": "“FBXW7 regulates DISC1 stability via the ubiquitin-proteosome system” (Molecular Psychiatry, 2017)",
  "tested_on": "DISC1, HEK293 cells",
  "test": "Endogenous DISC1 protein level in HEK293 cells, western blot",
  "assay_type": "cell-based, human",
  "details": "MG132 10–60 μM, 1 h, Figure 1b",
  "procedure": "HEK293 cells were sourced from ATCC (CRL-1573) and cultured as described in the manufacturer’s protocol. DMEM (SIGMA) supplemented with 10% fetal bovine serum, 2 mM L-glutamine, […] penicillin-streptomycin at 37 °C in a humidified atmosphere of 5% CO2. The cells were passaged at about 80% confluency. Cells were transfected with plasmid DNA using polyfect transfection reagent (Qiagen) according to the manufacturer’s instructions. HEK293 cells were treated with the pharmacological agents cycloheximide (C7698) and MG132 (M7449) (Sigma-Aldrich) or DISC1 disruptor peptides (custom synthesized by Severn Biotech) as described in the text.\nBriefly, detergent-soluble proteins were isolated from cells by disruption in lysis buffer 20 mM Tris-HCl (pH 7.5), 150 mM NaCl, 1 mM Na2EDTA, 1 mM EGTA, 1% triton, 2.5 mM sodium pyrophosphate, 1 mM β-glycerophosphate, 1 mM Na3VO4, 1 μg ml^–1 leupeptin, 10 mM DTT with Roche protease inhibitor, phosSTOP (Roche, 04906837001). Detergent-insoluble proteins were removed by centrifugation at 10 000 g for 10 min, and the soluble fraction was retained. Cell lysates were adjusted to equal protein amount (1 μg μl^–1) using cell lysis buffer. Cell lysates normalized for the protein concentration were incubated with mouse IgG (Millipore, 12487) Protein A agarose beads for 2 h at 4 °C. […] The complexes were analyzed on SDS PAGE. […]",
  "note": "Residues, ends and D or L forms follow the SMILES beside them. *: point of attachment. Cbz = O=C(OCc1ccccc1)*",
  "data": [
    {"molecule": "CC(C)C[C@@H](C=O)NC(=O)[C@H](CC(C)C)NC(=O)[C@H](CC(C)C)NC(=O)OCc1ccccc1", "note": "[MG132] (Cbz-Leu-Leu-Leu-aldehyde)", "values": [
      {"measurement": "endogenous DISC1 level after MG132", "result": "elevated"}
    ]}
  ]
}
